Source: a melting point compilation (Tetko et al.; mined from patent text by program, amines drawn as free bases though some values may be those of a salt)

Structure (SMILES)	melting point [°C]
N#CCN1CCC(Nc2nc3ccccc3n2Cc2ccc(CO)o2)CC1	210
COc1cc2c(cc1OC)[C@@H](c1ccc([N+](=O)[O-])cc1)NN(C1=NCCS1)[C@@H](C)C2	206 to 212
COCCc1cccc2oc(C(=O)Nc3ccc(-c4ccc(S(=O)(=O)NC(C(=O)OC)C(C)C)cc4)cc3)c(C)c12 (configuration not stated)	67 to 70
CCN(CC)C(=O)Nc1ccc(S(=O)(=O)Cl)cc1	148 to 150
CCCC(=O)N(CCC)C1Cc2ccc(-c3ccc(=O)[nH]n3)cc2C1 (single isomer, unassigned; (+))	159 to 160
CCC(CC)[C@@H](CO)NS(=O)(=O)c1ccc(Cl)s1	115 to 118
CCc1c2c(nc3cc(F)c(OC)cc13)-c1cc3c(c(=O)n1C2)COC(=O)CC3(O)CC (configuration not stated)	> 275
O=C(Nc1ccc(F)cc1)N[C@H]1CCCN(C(=O)c2ccc(F)cc2)C1	228 to 231
COc1ccc(COc2cc(NC(C)=O)c(Cl)cc2C(=O)CCCCCl)cc1OC	147
COc1ccc(C(=O)Sc2ccc(C(=O)O)cc2)cc1C(C)(C)C	220 to 221
Cc1nn(CC(F)(F)COCc2ccccc2)c(-c2ccc(F)cc2)c1-c1ccc2c(c1)NC(=O)CO2	154 to 155
O=C(NO)C1(S(=O)(=O)c2ccc(OCC#CCN3CCOCC3)cc2)CCN(Cc2ccc(Br)cc2)CC1	94
c1ccc2c(c1)Oc1ccncc1O2	102 to 108
CCOC(=O)CNC(=O)NCc1cccc2c1C(=O)N(C1CCC(=O)NC1=O)C2=O (configuration not stated)	187 to 189
COc1cc(-c2nc3ccc(OCCN4CCCCC4)cc3n2Cc2ccccc2Br)cc(OC)c1OC	145
CN(C)C(=O)c1ccc(C(=O)O)c(S(=O)(=O)NC(C)(C)C)c1	> 260
CCOC(=O)N(C)n1cccc1C(=O)c1ccccc1F	64 to 66
Cc1cc(C(=O)N2Cc3ccc(C(=O)N(CCO)CCO)n3Cc3ccccc32)ccc1-c1ccccc1C(F)(F)F	127 to 130
COCCOCCOc1ccc(NC(=O)NCc2ccc3c(c2)CN(C2CCC(=O)NC2=O)C3=O)cc1Cl (configuration not stated)	188 to 190
O=C(O)c1sc2cc(OCc3cccnc3)ccc2c1S(=O)c1ccccc1CO (configuration not stated)	210
CCCCCCCCC1C=CC(CCc2ccc(C(=O)O)o2)=C2N=C3CCCCC3=C21 (configuration not stated)	110 to 111
COc1ccc(-c2cc(C(=O)NCc3ccccc3)c(=O)n(C)n2)cc1	145 to 146
COCCOc1ccc(/C=C/C(=O)NS(=O)(=O)CC(F)(F)F)c(Oc2ncc(C(F)(F)F)cc2Cl)c1	146 to 148
O=C(CCCc1ccccc1)c1cc(O)c(O)c([N+](=O)[O-])c1	118 to 119
O=C(NCc1ccccc1Cl)c1cccnc1OCc1cccnc1	91 to 93
CCc1cc2c(cc1Sc1ccc(C(=O)O)cc1)C(C)(C)CCC2(C)C	82 to 83
O=Cc1cc2c3c(ccc4c3c1CCC4)CCC2	102 to 105
CC(C)Nc1cccnc1N1CCN(C(=O)c2ccc(C(=O)N3CCN(CC(O)CO)CC3)cc2)CC1 (configuration not stated)	158

Structure (SMILES)	melting point [°C]
O=C(O)c1ccn(-c2ccc(Cl)cc2)c1	222 to 224
CCc1c(-c2ccc(OCc3ccccc3)cc2)c2cc(COCCCN(C)C)c3cccc1n32	63 to 65
CC(C)(C)c1cc(C(=O)c2cc[nH]n2)cc(C(C)(C)C)c1O	216 to 219
I[Si](c1ccccc1)(c1ccccc1)c1ccccc1	221 to 225
CCON1CCC2(CC1)NC(=O)C(c1c(C)cc(C)cc1C)=C2O	> 250
Cc1cc(C2(c3ccc(Cl)cc3)OCCS2)ccc1NC(=O)c1cccc(I)c1C(=O)NC(C)C (configuration not stated)	214 to 217
Cc1ccccc1C(=O)CN1C(=O)C(NC(=O)c2cc3ccccc3[nH]2)N=C(C2CCCCC2)c2cccc(C)c21 (racemic)	127 to 145
O=C(CN1CCSCC1)N1CCC(C2c3ccc(Cl)c(Br)c3CCc3cc(Br)cnc32)CC1 (configuration not stated)	172 to 174
C/C(=C\C(C)O)c1ccc(C2CCCCC2)cc1 (configuration not stated)	67.5 to 68
COC(=O)C1=C(C)NC(C)=C(C(=O)OCCN2CCN(C(c3ccccc3)c3ccccc3)CC2)C1c1cccc(C(F)(F)F)c1 (configuration not stated)	70 to 72
CCCCNC(=O)Oc1ccccc1	39 to 40
O=C1NC(N2CCCCCC2)=N/C1=C\c1c[nH]c2ncc(C(F)(F)F)cc12	340
CC(C)c1ccc(/C=C/C(=O)/C=C/c2ccccc2)cc1	76 to 78
Cc1ccc(S(=O)(=O)N2CCC(C#N)(c3ccc(Cl)cc3Cl)CC2)cc1	145
COc1cc(C(=O)N2Cc3cccn3Cc3ccccc32)ccc1[N+](=O)[O-]	191 to 192
CCc1cc(C)c(Br)c(CC)c1-c1c(OC(=O)OC)c(C)nn(C)c1=O	113 to 115
O=C1C(CCO)Oc2ccc(F)cc2N1Cc1cccc([N+](=O)[O-])c1 (configuration not stated)	110 to 112
N#Cc1cc(C(=O)NNC(=O)c2occc2-c2cccs2)ccc1O	258 to 259
CC(C#CC1=C(C)C(=O)C(O)CC1(C)C)=CCO (configuration not stated)	84 to 86
CCC(Oc1ccccc1Br)C(=O)O (configuration not stated)	102
Clc1cccc(Nc2ccc(Oc3ccccc3)cc2)n1	69 to 73
O=[N+]([O-])c1cccc2[nH]c3c(c12)CCCCCC3	189 to 191
CC(C)CN1C(=O)C(CC(=O)O)OC(C)(c2ccccc2Cl)c2cc(Cl)ccc21 (configuration not stated)	153 to 154
COC(=O)C1=C(C)NC(C)=C(S(=O)(=O)c2ccc(OC)cc2)C1c1ccccc1Cl (configuration not stated)	176 to 178
CCOc1ccccc1[C@H]1O[C@H](CC(=O)O)C(=O)N(CC(C)C)c2ccc(Cl)cc21 (relative stereo)	190 to 192
CCCCCCCCCCCCCCCCOCC(O)CN1CCC(C)CC1 (configuration not stated)	84 to 85
O=Cc1c(Br)nc(Sc2ccccc2)n1Cc1cc2c(cc1Cl)OCO2	155

The next lines start with the values.

melting point [°C]	Structure (SMILES)
> 300	O=C(O)c1cc(O)cc2nc3c(O)cccc3nc12
197 to 199	CSc1nc(N)c2nsnc2n1
95 to 96	O=C1NCCc2ccccc2C1c1ccccc1 (configuration not stated)
222 to 224	Nc1nc(-c2cc(Cl)ccc2Cl)nc(N2CCC(O)CC2)n1
150 to 152	CC(C)n1cnc2c(N[C@H](CO)c3ccccc3)nc(Cl)nc21
102 to 103	OCCCc1ccc2oc(Cc3ccc4ccccc4c3)nc2c1
> 300	CCN1CCN(c2c(F)cc3c(=O)c(C(=O)O)cn(C4CC4)c3c2C#N)CC1
152 to 153	CCOC(=O)/C(=N\OC12CC3CC(CC(C3)C1)C2)c1csc(N)n1
252 to 253	COCCNc1nc(-n2ccnc2)nc2ccc(C(=O)OC)cc12
167 to 168	COc1ccc2c(c1)N(C)C(=O)N(c1ccc(Cl)cc1)S2(=O)=O
123 to 126	CCN1C(=O)C(C)(C)CCc2c1ccc(Nc1ncc(Cl)c(N[C@@H]3CCCC[C@H]3NS(C)(=O)=O)n1)c2OC
355 to 358	Cn1nc(-c2cnc3[nH]cc(C(=O)NC4CCOCC4)c3n2)c2ccc(Cl)cc21
178 to 180	CCCS(=O)(=O)N1C[C@@H](C)C[C@H](Nc2ncccc2-c2cnc3[nH]ccc3n2)C1
206 to 208	CC(=O)Nc1nc(CCc2ccc(NC(=N)N)cc2)c(C(=O)N2CCN(C(C)=O)CC2)s1
109 to 110	O=[N+]([O-])c1ccccc1C#Cc1c(F)c(F)nc(F)c1F
129 to 131	CCCN(CCCC(=O)Nc1c(C(C)C)nc(C)nc1N(CC)CC)c1ccccc1
166 to 169	Cn1ncnc1COc1nc2c(cc1-c1ccoc1)nnn2-c1c(F)cccc1F
144	CN(CCN1CCN(c2cccc(C(F)(F)F)n2)CC1)C(=O)c1ccc(F)cc1
180	ON=C(c1cccs1)c1cccc2nc(N[C@@H]3CCc4ccccc43)ccc12
258 to 260	Nc1nccc2cc(O)ccc12
187 to 188	O=C(CSc1n[nH]c(-c2ccccc2)n1)C12CC3CC(CC(C3)C1)C2

melting point [°C]	Structure (SMILES)
215 to 217	Nc1nc(N)c(-c2cc(Cl)cc(Cl)c2Cl)c(CF)n1
93 to 96	COc1ccc2cc(Br)ccc2n1
43.5 to 45	O=S(=O)(NCCSc1cc(F)c(OCCO)c(F)c1)c1ccc(Cl)cc1
164 to 167	CC(=O)C(=NNc1ccc(Cl)cc1)Sc1ccc(Cl)cc1
146	CCC(C)N(C)C(=O)c1cc2ccccc2c(-c2cccs2)n1 (configuration not stated)
185 to 187	Cc1nc(N2CCN(Cc3ccc(OC(F)(F)F)cc3)C2=O)sc1C(N)=O
216 to 217	Nc1nc(C(=O)N2CCN(Cc3ccc4c(c3)OCO4)CC2)c(-c2ccncc2)s1
138	O=C1N(c2c(Cl)cccc2Cl)Cc2cnc(Nc3ccccc3)nc2N1c1ccccc1
124 to 125	CC(=O)Nc1cc(F)ccc1F
169 to 171	O=c1ccc(-c2ccsc2)n[nH]1
304 to 307	O=S1(=O)N=CN(C2CC2)c2cc(I)ccc21
286 to 288	O=C(O)c1cn(C2CC2)c2c(F)c(N3CC(O)C3)c(F)cc2c1=O
219 to 226	Cc1ccc(Cl)c(Nc2ccccc2-c2nnc(N)s2)c1Cl
163 to 165	Nc1nc2ccccc2c2c1ncn2CCCCCC(=O)c1ccccc1
178 to 181	CCCSc1ncc(CC(N=C(c2ccccc2)c2ccccc2)C(=O)OCC)n1Cc1ccccc1Cl (configuration not stated)
216 to 218	O=c1[nH]cnc2c1sc(=O)n2C1OC(CO)C(O)C1O (configuration not stated)
86 to 87	CCOC(=O)Cn1ncc(-c2ccc(F)cc2)c1-c1ccccc1
116	CC12CCC(C(=Cc3ccc(CC(SSCC(=O)O)C(=O)O)cc3)C1=O)C2(C)C (configuration not stated)
207 to 209	CCn1ncc2c3noc(-c4cccc(Cl)c4)c3cnc21
47 to 49	C=C1CCc2sccc2C1=O
86 to 88	Cn1c(=O)c2c(ncn2CCCCCC#N)n(C)c1=O
